Measured values published in patent publication US20250313563A1, “GLYCOGEN SYNTHASE KINASE 3 INHIBITORS AND USES THEREOF” (The Broad Institute, Inc., priority 2022, published 2025).
Where two headings read alike, the source gives them in different places.

How the values were obtained:
[1] = biological target: GSK3α (GST-full length GSK3α) (Homo sapiens (Human), UniProt P49840); experiment: GSK3α TR-FRET kinase assay; format: biochemical
How it was run: (§1)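 Full-length GST-tagged human enzyme (1 nM) is exposed to test compound for 30 min before substrates are added. Phosphorylation of a primed biotinylated glycogen synthase peptide proceeds 100 min at room temperature at low ATP (4 μM α; 2 μM β) or high ATP (1 mM). Product is quantified by TR-FRET.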

[2] = biological target: GSK3b (GST-full length GSK3b) (Homo sapiens (Human), UniProt P49841); experiment: GSK3b TR-FRET kinase assay; format: biochemical
Chain of GSK3b (GST-full length GSK3b) (P49841 whole entry): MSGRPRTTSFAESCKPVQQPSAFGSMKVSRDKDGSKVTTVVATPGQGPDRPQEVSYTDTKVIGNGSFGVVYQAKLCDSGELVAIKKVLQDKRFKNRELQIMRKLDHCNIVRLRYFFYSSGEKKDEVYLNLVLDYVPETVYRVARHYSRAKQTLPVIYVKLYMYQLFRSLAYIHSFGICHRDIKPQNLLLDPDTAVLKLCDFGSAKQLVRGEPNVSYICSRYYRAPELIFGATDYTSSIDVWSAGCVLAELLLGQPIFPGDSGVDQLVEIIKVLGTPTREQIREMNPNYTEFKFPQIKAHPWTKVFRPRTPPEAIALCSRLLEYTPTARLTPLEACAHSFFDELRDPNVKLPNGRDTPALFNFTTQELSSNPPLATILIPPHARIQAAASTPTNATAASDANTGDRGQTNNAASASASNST
How it was run: as §1

[3] = 1 nM GSK3α, 4 μM ATP, 30 minute preincubation, Table 16, read-out: GSK3-A TR-FRET BIOCHEMICAL (TR-FRET), IC50
[4] = read-out: GSK3-A (TR-FRET 1 mM ATP), GMean, IC50, 1 mM ATP, geometric mean
[5] = 1 nM GSK3b, 2 μM ATP, 30 minute preincubation, Table 16, read-out: GSK3-B TR-FRET BIOCHEMICAL (TR-FRET), IC50
[6] = read-out: GSK3-B (TR-FRET 1 mM ATP), GMean, IC50, 1 mM ATP, geometric mean
[7] = 1 nM GSK3α, 4 μM ATP, 30 minute preincubation, Table 16, read-out: GSK3-A TR-FRET BIOCHEMICAL (TR-FRET)
[8] = 1 nM GSK3b, 2 μM ATP, 30 minute preincubation, Table 16, read-out: GSK3-B TR-FRET BIOCHEMICAL (TR-FRET)

Chain of GSK3α (GST-full length GSK3α) (P49840 whole entry): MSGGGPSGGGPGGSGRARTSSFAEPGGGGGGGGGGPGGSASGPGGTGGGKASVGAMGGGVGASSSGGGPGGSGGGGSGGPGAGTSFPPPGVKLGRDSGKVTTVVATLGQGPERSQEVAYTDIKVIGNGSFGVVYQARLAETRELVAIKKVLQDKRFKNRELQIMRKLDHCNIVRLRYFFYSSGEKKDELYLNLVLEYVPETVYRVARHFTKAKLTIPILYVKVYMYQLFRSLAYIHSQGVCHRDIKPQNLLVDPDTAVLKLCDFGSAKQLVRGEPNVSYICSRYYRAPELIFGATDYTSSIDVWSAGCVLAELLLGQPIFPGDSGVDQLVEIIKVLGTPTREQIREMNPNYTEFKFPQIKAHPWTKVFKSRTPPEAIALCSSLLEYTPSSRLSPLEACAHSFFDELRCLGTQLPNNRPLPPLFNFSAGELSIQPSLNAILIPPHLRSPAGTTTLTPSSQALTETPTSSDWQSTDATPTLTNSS

Compound	IC50 [1, 3] [nM]	IC50 [2, 5] [nM]	further results
CCC1(c2cccc(N(C)c3ncccn3)c2)C2=C(CC(C)(C)C2=O)Nc2n[nH]cc21 (centres unmarked) [Compound 952205]	1000 to 5000	> 5000	
CCC1(c2cccc(C(F)(F)F)c2)C2=C(CCN(c3cnn(C)c3C)C2=O)Nc2n[nH]cc21 (centres unmarked) [Compound 952262]	> 5000	> 5000	
CC[C@]1(c2cccc(-c3cc(-c4ccccc4)nn3C(C)C)c2)C2=C(CC(C)(C)NC2=O)Nc2n[nH]cc21 [Compound 952411]	1000 to 5000	> 5000	
CC1(C)CC(=O)C2=C(C1)Nc1n[nH]cc1[C@@]21CC[C@H](C(F)(F)F)C1 [Compound 952434]			IC50 [1, 7]: 100 to 1000 nM; IC50 [2, 8]: 100 to 1000 nM
CC1(C)CC(=O)C2=C(C1)Nc1n[nH]cc1[C@]21CC[C@H](C(F)(F)F)C1 [Compound 952435]			IC50 [1, 7]: ≤ 100 nM; IC50 [2, 8]: 100 to 1000 nM
CC1(C)CC(=O)C2=C(C1)Nc1n[nH]cc1[C@@]21CC[C@@H](C(F)(F)F)C1 [Compound 952436]			IC50 [1, 7]: ≤ 100 nM; IC50 ([1]; GSK3-A (TR-FRET 1 mM ATP), GMean, IC50, 1 mM ATP, geometric mean): 1000 to 5000 nM; IC50 [2, 8]: ≤ 100 nM; IC50 ([2]; GSK3-B (TR-FRET 1 mM ATP), GMean, IC50, 1 mM ATP, geometric mean): 1000 to 5000 nM
CC1(C)CC(=O)C2=C(C1)Nc1n[nH]cc1[C@]21CC[C@@H](C(F)(F)F)C1 [Compound 952437]			IC50 [1, 7]: 100 to 1000 nM; IC50 [2, 8]: 100 to 1000 nM
CC[C@@]1(c2cccc(C(F)(F)F)c2)C2=C(CCN(c3cn(C)c(C)n3)C2=O)Nc2n[nH]cc21 [Compound 952478]	1000 to 5000	> 5000	
CC[C@]1(c2cccc(C(F)(F)F)c2)C2=C(CCN(c3cn(C)c(C)n3)C2=O)Nc2n[nH]cc21 [Compound 952479]	> 5000	> 5000	
CCc1cc(-c2cccc([C@@]3(CC)C4=C(CC(C)(C)NC4=O)Nc4n[nH]cc43)c2)n(C)n1 [Compound 952561]	100 to 1000	100 to 1000	
CC[C@]1(c2cccc(-c3c(F)cncc3OC)c2)C2=C(CC(C)(C)C2=O)Nc2n[nH]cc21 [Compound 952562]	1000 to 5000	> 5000	
CC[C@]1(c2cccc(-c3cc(C)nc4c3cnn4C)c2)C2=C(CC(C)(C)NC2=O)Nc2n[nH]cc21 [Compound 952563]	1000 to 5000	> 5000	

Second part, led by results:

IC50 [1, 3] [nM]	IC50 [2, 5] [nM]	Compound	further results
≤ 100	≤ 100	CC[C@]1(c2cccc(-c3ccncc3C(F)(F)F)c2)C2=C(CC(C)(C)NC2=O)Nc2n[nH]cc21 [Compound 952025]	IC50 [1, 4]: ≤ 100 nM; IC50 [2, 6]: 1000 to 5000 nM
100 to 1000	1000 to 5000	CCC1(c2cccc(-c3cnn(-c4cnccn4)c3)c2)C2=C(CC(C)(C)NC2=O)Nc2n[nH]cc21 (centres unmarked) [Compound 952207]	
100 to 1000	> 5000	CC[C@]1(c2cccc(-c3cnn(CC(=O)N(C)C)c3)c2)C2=C(CC(C)(C)NC2=O)Nc2n[nH]cc21 [Compound 952208]	
≤ 100	100 to 1000	CCC1(c2cccc(-c3cnn(CC#N)c3)c2)C2=C(CC(C)(C)NC2=O)Nc2n[nH]cc21 (centres unmarked) [Compound 952210]	
≤ 100	100 to 1000	CC[C@@]1(c2cccc(N(C)c3ncccn3)c2)C2=C(CC(C)(C)C2=O)Nc2n[nH]cc21 [Compound 952212]	IC50 [1, 4]: 100 to 1000 nM; IC50 [2, 6]: > 5000 nM
≤ 100	100 to 1000	CC[C@]1(c2cccc(C(F)(F)F)c2)C2=C(CCN(c3cnn(C)c3C)C2=O)Nc2n[nH]cc21 [Compound 952257]	
≤ 100	≤ 100	CC[C@]1(c2cccc(-c3c(C#N)cnn3C)c2)C2=C(CC(C)(C)NC2=O)Nc2n[nH]c(C)c21 [Compound 952410]	IC50 [1, 4]: 100 to 1000 nM; IC50 [2, 6]: 1000 to 5000 nM
≤ 100	100 to 1000	CCC1(c2cccc(-c3ccnc4c3CCC4)c2)C2=C(CC(C)(C)C2=O)Nc2n[nH]cc21 (centres unmarked) [Compound 952557]	
≤ 100	≤ 100	CC[C@@]1(c2cccc(-c3c(F)cncc3OC)c2)C2=C(CC(C)(C)C2=O)Nc2n[nH]cc21 [Compound 952564]	IC50 [1, 4]: 100 to 1000 nM; IC50 [2, 6]: 1000 to 5000 nM
≤ 100	100 to 1000	CC[C@]1(c2cccc(-c3cnn4ccncc34)c2)C2=C(CC(C)(C)NC2=O)Nc2n[nH]cc21 [Compound 952565]	IC50 [1, 4]: 1000 to 5000 nM; IC50 [2, 6]: > 5000 nM
